{
  "source": "patent US11186599B2",
  "about": "“Phosphonamide ester compound, salt thereof, related crystal form thereof, preparation method therefor and use thereof” (SICHUAN KELUN-BIOTECH BIOPHARMACEUTICAL CO., LTD., priority 2018, dated 2021)",
  "key": {"[1]": {"assay": "Solubility determination (shaking 24 hours, HPLC)", "format": "physicochemical", "details": "for solubility at 24 h: thermodynamic from solid, shaking 24 hours", "experimental": "An aqueous solution of pH 2.0 (the pH was adjusted with an appropriate amount of hydrochloric acid), an aqueous solution of pH 7.4 (the pH was adjusted with 10 mM potassium dihydrogen phosphate and an appropriate amount of NaOH), and a fasted-state simulated intestinal fluid (FaSSIF) were prepared as solvents, respectively. Several portions of the sample for test, 1 mg each, were weighed and dissolved in different solvents, 1 mL each. The solutions were thoroughly shaked, and then subjected to ultrasonic operation for 5 minutes. […] After shaking in a constant temperature shaking water bath for 24 hours, filtration was carried out through a 0.45 uM aqueous filter membrane, followed by HPLC analysis for determination of the solubility."}, "[2]": {"assay": "Hygroscopicity test by dynamic vapor sorption (DVS)", "format": "physicochemical", "details": "25° C.", "experimental": "The hygroscopicity of crystalline forms A and B of the fumarate salt was measured by dynamic vapor sorption (DVS) using a DVS Intrinsic (SMS) at 25° C. in a cycle-DMDT mode."}, "[3]": {"assay": "Physicochemical stability test, placed open at 40° C./75% RH", "details": "placed open 14 days at 40° C./75% RH", "experimental": "An appropriate amount of crystalline form A of the fumarate salt of the compound of Formula (I) of the invention was detected for the physicochemical stability thereof under the following conditions: placed open for 14 days at 40° C./75% RH. XRPD and LC-MS analysis were then carried out to determine the crystalline form and the change in purity."}, "[4]": {"assay": "Pharmacokinetic experiment in beagle dogs", "format": "in vivo", "details": "2.5 mg/kg, capsules intragastrically", "experimental": "The crystalline forms A and C of the fumarate salt of the compound of Formula (I) were encapsulated into capsules and administered intragastrically to beagle dogs at a dose of 2.5 mg/kg. Venous blood was collected at different time points after administration and separately subjected to the detection of the original free base form of the compound of Formula (I) and its metabolite tenofovir (TFV)."}, "[5]": {"details": "phase III clinical trial, cited from earlier work"}, "[6]": {"details": "beagle, dog, venous blood, po, analyte: free base of the compound of Formula (I)"}, "[7]": {"details": "analyte: free base of the compound of Formula (I), listed as crystalline form A of the fumarate salt"}, "[8]": {"details": "analyte: free base of the compound of Formula (I), listed as crystalline form C of the fumarate salt"}},
  "note": "Read-outs that look alike come from different tables or passages of the source.",
  "data": [
    {"smiles": "C[C@H](Cn1cnc2c(N)ncnc21)OC[P@@](=O)(NCCOCc1ccccc1)Oc1ccccc1", "note": "[listing 1 of 3 here]", "values": [
      {"measurement": "solubility at 24 h", "setting": "[1]; aqueous solution of pH 2.0, simulated gastric fluid, aqueous solution pH 2.0 (hydrochloric acid), read-out: Solubility, H2O (pH 2.0)", "result": 1000, "unit": "µg/mL"},
      {"measurement": "solubility at 24 h", "setting": "[1]; aqueous solution of pH 7.4, aqueous buffer, aqueous solution pH 7.4 (10 mM potassium dihydrogen phosphate/NaOH), read-out: Solubility, H2O (pH 7.4)", "result": 990, "unit": "µg/mL"},
      {"measurement": "solubility at 24 h", "setting": "[1]; fasted-state simulated intestinal fluid (FaSSIF), FaSSIF, read-out: Solubility, fasted-state simulated intestinal fluid (FaSSIF)", "result": 910, "unit": "µg/mL"},
      {"measurement": "Solubility (in words)", "setting": "[1]; water and fasted-state intestinal fluid", "result": "good solubility"},
      {"measurement": "Hygroscopicity (in words)", "setting": "[2]; DVS", "result": "little or no hygroscopicity"},
      {"measurement": "Mass change caused by moisture absorption (%)", "setting": "[2]; target humidity 0%", "result": 0, "unit": "%"},
      {"measurement": "Mass change caused by moisture absorption (%)", "setting": "[2]; target humidity 10%", "result": 0.019, "unit": "%"},
      {"measurement": "Mass change caused by moisture absorption (%)", "setting": "[2]; target humidity 20%, listed as crystalline form A of the fumarate salt", "result": 0.04, "unit": "%"},
      {"measurement": "Mass change caused by moisture absorption (%)", "setting": "[2]; target humidity 30%", "result": 0.057, "unit": "%"},
      {"measurement": "Mass change caused by moisture absorption (%)", "setting": "[2]; target humidity 40%", "result": 0.078, "unit": "%"},
      {"measurement": "Mass change caused by moisture absorption (%)", "setting": "[2]; target humidity 50%", "result": 0.096, "unit": "%"},
      {"measurement": "Mass change caused by moisture absorption (%)", "setting": "[2]; target humidity 60%", "result": 0.117, "unit": "%"},
      {"measurement": "Mass change caused by moisture absorption (%)", "setting": "[2]; target humidity 70%", "result": 0.137, "unit": "%"},
      {"measurement": "Mass change caused by moisture absorption (%)", "setting": "[2]; target humidity 80%", "result": "less than 0.2%"},
      {"measurement": "Mass change caused by moisture absorption (%)", "setting": "[2]; target humidity 80%, listed as crystalline form A of the fumarate salt", "result": 0.158, "unit": "%"},
      {"measurement": "Mass change caused by moisture absorption (%)", "setting": "[2]; target humidity 90%", "result": "less than 0.2%"},
      {"measurement": "Mass change caused by moisture absorption (%)", "setting": "[2]; target humidity 90%, listed as crystalline form A of the fumarate salt", "result": 0.192, "unit": "%"},
      {"measurement": "Relative purity after storage", "setting": "[3]; LC-MS", "result": "up to 99%"},
      {"measurement": "Change after storage (crystalline form and purity, in words)", "setting": "[3]; XRPD and LC-MS", "result": "without significant change"},
      {"measurement": "AUC(0-inf)", "setting": "[4]; [6]", "result": 66.7, "unit": "ng·h/mL"},
      {"measurement": "AUC(0-t)", "setting": "[4]; [6]", "result": 66.2, "unit": "ng·h/mL"},
      {"measurement": "half-life", "setting": "[4]; [6]", "result": 33, "unit": "min"},
      {"measurement": "Cmax", "setting": "[4]; beagle, dog, venous blood, po, analyte: free base of the compound of Formula (I), read-out: Cmax", "result": 67.4, "unit": "ng/mL"},
      {"measurement": "Conversion to TFV (in words)", "setting": "[4]", "result": "rapidly converted to TFV"},
      {"measurement": "MRTINF", "setting": "[4]; [7]", "result": 73.2, "unit": "min"},
      {"measurement": "Tmax", "setting": "[4]; [7]", "result": 41.4, "unit": "min"}
    ]},
    {"smiles": "CC(C)OC(=O)[C@H](C)N[P@](=O)(CO[C@H](C)Cn1cnc2c(N)ncnc21)Oc1ccccc1", "note": "[TAF, Tenofovir alafenamide]", "values": [
      {"measurement": "ALT recovery rate", "setting": "[5]; patients", "result": "lower than 80%"},
      {"measurement": "Patients in whom glomerular filtration rate decreased by more than 25%", "setting": "[5]; share of patients", "result": "more than 10%"},
      {"measurement": "Patients in whom spinal bone mineral density (BMD) decreased by more than 5%", "setting": "[5]; share of patients", "result": "more than 10%"}
    ]},
    {"smiles": "C[C@H](Cn1cnc2c(N)ncnc21)OC[P@@](=O)(NCCOCc1ccccc1)Oc1ccccc1", "note": "[listing 2 of 3 here]", "values": [
      {"measurement": "Mass change caused by moisture absorption (%)", "setting": "[2]; target humidity 20%", "result": 0.2, "unit": "%"}
    ]},
    {"smiles": "C[C@H](Cn1cnc2c(N)ncnc21)OC[P@@](=O)(NCCOCc1ccccc1)Oc1ccccc1", "note": "[listing 3 of 3 here]", "values": [
      {"measurement": "AUCINF", "setting": "[4]; [8]", "result": 43.4, "unit": "ng·h/mL"},
      {"measurement": "AUClast", "setting": "[4]; [8]", "result": 41.7, "unit": "ng·h/mL"},
      {"measurement": "Cmax", "setting": "[4]; [8]", "result": 77.5, "unit": "ng/mL"},
      {"measurement": "MRTINF", "setting": "[4]; [8]", "result": 33.6, "unit": "min"},
      {"measurement": "T1/2", "setting": "[4]; [8]", "result": 17.4, "unit": "min"},
      {"measurement": "Tmax", "setting": "[4]; [8]", "result": 18.6, "unit": "min"}
    ]}
  ]
}
